Data reported in ChEMBL document CHEMBL4680302, “Biologic-like In Vivo Efficacy with Small Molecule Inhibitors of TNFα Identified Using Scaffold Hopping and Structure-Based Drug Design Approaches” (J Med Chem, 2020).

Key:
Cytochrome P450 2C8 = molecular target: T1, Cytochrome P450 2C8 (Homo sapiens, UniProt P10632); assay: Inhibition of recombinant CYP2C8 (unknown origin); assay type: ADME
T1 sequence (P10632 whole entry): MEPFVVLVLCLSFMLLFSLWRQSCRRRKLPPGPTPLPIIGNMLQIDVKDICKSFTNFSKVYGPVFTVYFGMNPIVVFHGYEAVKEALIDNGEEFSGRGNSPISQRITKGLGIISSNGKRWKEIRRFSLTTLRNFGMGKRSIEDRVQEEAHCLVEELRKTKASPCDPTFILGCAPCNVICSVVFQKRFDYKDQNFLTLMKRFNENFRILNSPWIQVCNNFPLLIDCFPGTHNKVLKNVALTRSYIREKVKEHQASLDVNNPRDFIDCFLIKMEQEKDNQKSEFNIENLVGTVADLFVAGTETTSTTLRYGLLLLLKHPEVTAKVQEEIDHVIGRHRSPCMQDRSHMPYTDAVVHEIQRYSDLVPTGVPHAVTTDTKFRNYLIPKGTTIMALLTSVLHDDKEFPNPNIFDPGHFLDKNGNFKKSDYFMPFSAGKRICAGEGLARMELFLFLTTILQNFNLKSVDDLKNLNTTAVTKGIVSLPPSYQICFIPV

Cytochrome P450 2D6 = Cytochrome P450 2D6 (Homo sapiens, UniProt P10635); assay: Inhibition of recombinant CYP2D6 (unknown origin); assay type: ADME
[1] = Total AUC in mouse at 0.5 mg/kg, iv; assay type: ADME, organism-based; design: route intravenous, time AUCmax, dose 0.5 mg/kg; settings: in vivo
[2] = Selectivity ratio of drug exposure in anticollagen antibody-induced arthritis BALB/c mouse model at 2 mg/kg, po BID for 12 days to IC50 for inhibition of human TNFalpha expressed in HEK-Blue-CD40L cells assessed as inhibition of NFkappaB activation by quanti-blue based SEAP assay

Chain of Cytochrome P450 2D6 (P10635 whole entry): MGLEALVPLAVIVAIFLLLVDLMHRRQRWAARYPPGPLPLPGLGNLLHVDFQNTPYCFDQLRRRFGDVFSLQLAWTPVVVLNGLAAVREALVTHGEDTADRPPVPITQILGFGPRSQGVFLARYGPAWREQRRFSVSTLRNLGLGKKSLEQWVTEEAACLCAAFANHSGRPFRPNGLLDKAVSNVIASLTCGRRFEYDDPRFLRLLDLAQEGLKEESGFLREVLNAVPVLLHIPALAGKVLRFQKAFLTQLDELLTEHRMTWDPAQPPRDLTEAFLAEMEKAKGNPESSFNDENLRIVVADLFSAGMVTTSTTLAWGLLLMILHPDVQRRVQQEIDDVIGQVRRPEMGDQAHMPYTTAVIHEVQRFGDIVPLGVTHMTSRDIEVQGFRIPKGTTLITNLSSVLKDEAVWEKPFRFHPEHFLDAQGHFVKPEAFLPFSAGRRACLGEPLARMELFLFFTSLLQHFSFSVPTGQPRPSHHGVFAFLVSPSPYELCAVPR

IC50 (Cytochrome P450 2C8): > 6.7 µM
IC50 (Cytochrome P450 2D6): > 20 µM
AUC [1]: 2.5 µM·h
Structure (SMILES): Cc1nc2cc(F)c(-c3cnc(C(C)(C)O)nc3)nc2c(N[C@H](C)c2cc(C#N)ccc2F)c1Cl
Ratio [2]: 1
